Laboratory results: PubChem BioAssay (NCI)
Values joined by “and” are separate entries in the source; they are usually repeats but may differ in a detail not shown here. Identical values can stand only once.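 Five compound concentrations were applied to cells in 96-well plates for 48 hours; endpoints were derived by simple linear interpolation of the resulting dose-response curve. GI50 marks 50% less growth. The concentration for full growth arrest is given as TGI.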

What was measured:
Assay in all cases: inhibition of tumour cell growth, NCI panel, 48 h
HCT-15 colon = tested on: HCT-15 colon
UACC-62 melanoma = tested on: UACC-62 melanoma
OVCAR-5 ovarian = tested on: OVCAR-5 ovarian
LOX IMVI melanoma = tested on: LOX IMVI melanoma
HCT-116 colon = tested on: HCT-116 colon
SK-OV-3 ovarian = tested on: SK-OV-3 ovarian
SK-MEL-5 melanoma = tested on: SK-MEL-5 melanoma
MDA-MB-435 = tested on: MDA-MB-435
BT-549 breast = tested on: BT-549 breast
RPMI-8226 leukemia = tested on: RPMI-8226 leukemia

Structure (SMILES)	GI50 (HCT-15 colon) [µM]	TGI (HCT-15 colon) [µM]	GI50 (UACC-62 melanoma) [µM]	TGI (UACC-62 melanoma) [µM]	GI50 (OVCAR-5 ovarian) [µM]	TGI (OVCAR-5 ovarian) [µM]	GI50 (LOX IMVI melanoma) [µM]	TGI (LOX IMVI melanoma)	GI50 (HCT-116 colon) [µM]	TGI (HCT-116 colon)	GI50 (SK-OV-3 ovarian) [µM]	TGI (SK-OV-3 ovarian) [µM]	GI50 (SK-MEL-5 melanoma) [µM]	TGI (SK-MEL-5 melanoma)	GI50 (MDA-MB-435) [µM]	TGI (MDA-MB-435) [µM]	GI50 (BT-549 breast) [µM]	TGI (BT-549 breast) [µM]	GI50 (RPMI-8226 leukemia) [µM]	TGI (RPMI-8226 leukemia) [µM]
CC(=O)Nc1cc2c3c(cccc3c1)-c1ccccc1-2	> 100	> 100	40	> 100	16.7	35.7	38.9	> 100 µM	> 100	> 100 µM	26.5	84.3	> 100	> 100 µM	30	> 100	64.6	> 100	–	–
COc1cc(N2CCC(N)CC2)ccc1Nc1ncc(Cl)c(-c2c[nH]c3ccccc23)n1	0.323	1.96	–	–	0.137	2.11	0.226	1.58 µM	0.422	1.78 µM	0.68	2.8	1.49	2.84 µM	0.266	1.77	1.56	3.39	1.28	3.89
CC1=C(C(=O)Nc2ccc(C)cc2)C(c2cccc([N+](=O)[O-])c2)C(C(=O)Nc2ccc(C)cc2)=C(C)N1	–	> 100	–	30.4	–	> 100	–	32.3 µM	–	> 100 µM	–	> 100	–	44.3 µM	–	–	–	–	–	–
CC[As](CC)SCC1OC(OC(C)=O)C(OC(C)=O)C(OC(C)=O)C1OC(C)=O (centres undefined)	–	26.4	–	27.2	–	32.4	–	33.6 µM	–	32.1 µM	–	29.3	–	28.4 µM	–	–	–	–	–	36.2
CC1=CC[C@@H](C(C)(C)O)C[C@@H]1O	–	> 5000	–	> 5000	–	> 5000	–	> 5000 µM	–	> 5000 µM	–	> 5000	–	> 5000 µM	–	–	–	–	–	–
CN(C)c1ccc(/C=c2/c3cc(O)ccc3n3c2cc(-c2ccccc2)[n+]3C)cc1	–	> 100	> 100	–	6.04	> 100	–	2.47 µM	1.1	–	6.13	> 100	–	2.04 µM	–	2.29	–	–	1.35	–
COc1ccc(/C=C/C(=O)/C=C(O)/C=C/c2ccc(OC)c(OC)c2)cc1OC	3.76	> 100	10.8	38.3	6.42	46.4	2.54	17.9 µM	1.83	5.96 µM	> 100	> 100	3.01	12.7 µM	3.32	> 100	–	–	0.559	6.85
Cc1cc(C)nc(NS(=O)(=O)c2ccc(NC(=O)COC(=O)c3cccc4c(=O)c5ccccc5[nH]c34)cc2)n1	–	> 100	–	34.3	–	58.9	–	40.7 µM	–	55 µM	–	> 100	–	> 100 µM	–	–	–	–	–	> 100
COc1ccc([C@@H]2OC(=O)C3C2C(=O)O[C@H]3c2ccc(OC)cc2)cc1 (some centres undefined)	–	> 100	–	> 100	–	–	–	–	–	> 100 µM	–	> 100	–	–	–	–	–	–	–	> 100
COc1cc(CC(=O)O)c([N+](=O)[O-])cc1OC	–	> 100	–	> 100	–	> 100	–	> 100 µM	–	> 100 µM	–	> 100	–	–	–	–	–	–	–	> 100
COC(=O)C1=CC(=O)[C@@H]2CCCC[C@H]12	–	> 100	–	> 100	–	–	–	–	–	> 100 µM	–	> 100	–	–	–	–	–	–	–	> 100
[CH3][Hg]/[N]=C(/N)NC#N	3.02	12.1	11.4	23.9	17.1	31	3.29	14.9 µM	14.4	27.9 µM	16.9	30.8	8.9	21.1 µM	–	–	–	–	2.62	> 100
Cc1cc(C)c(/C=N/NS(=O)(=O)c2ccccc2)c(C)c1	–	> 100	–	> 100	–	> 100	–	> 100 µM	–	> 100 µM	–	> 100	–	> 100 µM	–	–	–	–	–	> 100
COC1C(=O)CCC2(CO2)C1(O)C1(C)OC1CC=C(C)C (centres undefined)	–	> 100	–	80.8	–	> 100	–	–	–	> 100 µM	–	> 100	–	83.9 µM	–	> 100	–	> 100	–	–
COC(=O)c1c2c(c(C)[n+]([O-])c1C)C(=O)C(NCc1ccc(O)cc1)=CC2=O	1.43	3.18	1.36	2.97	1.77	3.36	0.938	2.24 µM	0.333	1.24 µM	–	–	1.27	2.59 µM	1.68	3.19	1.43	2.91	1.78	4.18
Nc1n[nH]c2ccc([C@@H]3Nc4ccc5cn[nH]c5c4[C@H]4C5CCC(C5)[C@@H]34)cc12 (some centres undefined)	0.414	> 100	0.389	34.3	1.14	99.3	0.567	> 81.2 µM	0.442	> 100 µM	0.831	> 100	0.355	3.45 µM	–	–	0.755	> 65.8	0.346	11.1
CCCCCCCCCC[C@H](O)[C@H]1CC[C@@H]([C@@H](O)CC[C@H](O)[C@@H]2CCC(CCCCCCC[C@@H](O)CC3=C[C@H](C)OC3=O)O2)O1 (some centres undefined)	7.02	30.8	–	3.13	12	28.4	0.0764	2.18 µM and 10 µM	0.507	2.65 µM and 20.7 µM	–	–	–	3.48 µM and 3.24 µM	5.07	–	–	–	–	4.03
Fc1ccc(N=C2C=CC(=Nc3ccc(F)cc3)c3ccccc32)cc1	–	> 100	–	> 100	–	> 100	–	> 100 µM	–	> 100 µM	–	> 100	–	> 100 µM	–	–	–	–	–	> 100
CC#CC#C/C(=C/C=CC(=O)OC)SC	–	> 100	–	> 100	–	> 100	–	> 100 µM	–	> 100 µM	–	> 100	–	> 100 µM	–	> 100	–	> 100	–	–
